Here are results for 29 compounds from BindingDB's records for doi:10.7270/Q2NZ862K (Nmmlsc, 2007).

What is called Ki is a measure of affinity in units of concentration, obtained from inhibition or displacement.

In this test the target is T1, fMet-Leu-Phe receptor (Homo sapiens, UniProt P21462).
T1 sequence (P21462 whole entry): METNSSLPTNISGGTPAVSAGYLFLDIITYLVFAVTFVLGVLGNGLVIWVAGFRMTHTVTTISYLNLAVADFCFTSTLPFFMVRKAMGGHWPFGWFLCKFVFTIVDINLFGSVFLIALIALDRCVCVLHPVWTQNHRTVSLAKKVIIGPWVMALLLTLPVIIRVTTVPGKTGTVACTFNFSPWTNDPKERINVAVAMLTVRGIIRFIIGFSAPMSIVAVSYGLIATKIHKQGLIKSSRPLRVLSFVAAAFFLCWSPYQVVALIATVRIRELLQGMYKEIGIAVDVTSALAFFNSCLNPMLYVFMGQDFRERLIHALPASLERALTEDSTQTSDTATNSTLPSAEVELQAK
Description: FPR ligands, dose response (AID 519).
`CCOc1cccc(C(=O)C2C(=O)C(=O)N(Cc3cccnc3)C2c2ccco2)c1` (centres undefined) [(4Z)-4-[(3-ethoxyphenyl)-hydroxymethylidene]-5-(2-furanyl)-1-(3-pyridinylmethyl)pyrrolidine-2,3-dione] yielded a Ki above 43.7 µM.
The same measure for `CCOc1cccc(C(=O)C2C(=O)C(=O)N(Cc3ccco3)C2c2ccncc2)c1` (centres undefined) [(4Z)-1-(2-furfuryl)-4-[hydroxy(m-phenetyl)methylene]-5-(4-pyridyl)pyrrolidine-2,3-quinone]: above 43.7 µM; for `COc1ccccc1C1C(C(=O)c2ccccc2)C(=O)C(=O)N1CC(C)C` (centres undefined) [(4Z)-4-[hydroxy(phenyl)methylene]-1-isobutyl-5-(2-methoxyphenyl)pyrrolidine-2,3-quinone]: 3.6 µM.
The same measure for `Cc1ccsc1C1C2C(=O)CC(C)(C)CC2=Nc2ncnn21` (centres undefined) [6,6-dimethyl-9-(3-methyl-2-thienyl)-1,5,7,9-tetrahydro-[1,2,4]triazolo[5,1-b]quinazolin-8-one]: 8.2 µM; for `O=C1C(=O)N(CCN2CCOCC2)C(c2ccccc2)C1C(=O)c1cccs1` (centres undefined) [1-(2-morpholin-4-ylethyl)-4-oxidanyl-2-phenyl-3-thiophen-2-ylcarbonyl-2H-pyrrol-5-one]: above 43.7 µM.
In turn, `Cc1ccc(C2C(C(=O)c3cnn(-c4ccccc4)c3C)C(=O)C(=O)N2CCN2CCOCC2)o1` (centres undefined) [(4Z)-4-[hydroxy-(5-methyl-1-phenyl-4-pyrazolyl)methylidene]-5-(5-methyl-2-furanyl)-1-[2-(4-morpholinyl)ethyl]pyrrolidine-2,3-dione] yielded an inhibition constant (Ki) of 15.2 µM.
Consider `C=CCOc1ccc(C2C(C(=O)c3ccco3)C(=O)C(=O)N2Cc2cccnc2)cc1` (centres undefined) [3-(furan-2-carbonyl)-4-hydroxy-2-(4-prop-2-enoxyphenyl)-1-(pyridin-3-ylmethyl)-2H-pyrrol-5-one], for which the Ki came to 6.4 µM.
The figure for `C=CCOc1cccc(C2C(C(=O)c3ccco3)C(=O)C(=O)N2CCN2CCOCC2)c1` (centres undefined) [3-(furan-2-carbonyl)-4-hydroxy-1-(2-morpholin-4-ylethyl)-2-(3-prop-2-enoxyphenyl)-2H-pyrrol-5-one] is above 43.7 µM; for `Cc1ccc(C(=O)C2C(=O)C(=O)N(CCN3CCOCC3)C2c2cccnc2)cc1` (centres undefined) [(4Z)-4-[(4-methylphenyl)-oxidanyl-methylidene]-1-(2-morpholin-4-ylethyl)-5-pyridin-3-yl-pyrrolidine-2,3-dione] it is above 43.7 µM.
As for `COc1ccccc1C1C(C(=O)c2ccccc2)C(=O)C(=O)N1CCO` (centres undefined) [(4Z)-1-(2-hydroxyethyl)-4-[hydroxy(phenyl)methylene]-5-(2-methoxyphenyl)pyrrolidine-2,3-quinone], the Ki came to 12.9 µM. In other words, the double-digit micromolar range.
The same measure for `COc1ccc(OC)c(C2C(C(=O)c3ccccc3)C(=O)C(=O)N2Cc2ccco2)c1` (centres undefined) [(4Z)-5-(2,5-dimethoxyphenyl)-1-(2-furanylmethyl)-4-[hydroxy(phenyl)methylidene]pyrrolidine-2,3-dione]: 2.2 µM; for `COCCN1C(=O)C(=O)C(C(=O)c2cccs2)C1c1ccccc1` (centres undefined) [1-(2-methoxyethyl)-4-oxidanyl-2-phenyl-3-thiophen-2-ylcarbonyl-2H-pyrrol-5-one]: above 43.7 µM; for `COc1ccc(CCN2C(=O)C(=O)C(C(=O)c3ccco3)C2c2cccs2)cc1OC` (centres undefined) [1-[2-(3,4-Dimethoxy-phenyl)-ethyl]-4-(furan-2-carbonyl)-3-hydroxy-5-thiophen-2-yl-1,5-dihydro-pyrrol-2-one]: 12.4 µM.
`C=C(c1ccc(Br)cc1)c1sc(N2CCCC2)nc1O` [(5Z)-5-[1-(4-bromophenyl)ethylidene]-2-(1-pyrrolidinyl)-4-thiazolone] gave a Ki above 43.7 µM.
The same measure for `COc1cc(C2C(C(=O)c3ccco3)C(=O)C(=O)N2c2cc(C)on2)cc(Br)c1O` (centres undefined) [2-(3-bromanyl-5-methoxy-4-oxidanyl-phenyl)-3-(furan-2-ylcarbonyl)-1-(5-methyl-1,2-oxazol-3-yl)-4-oxidanyl-2H-pyrrol-5-one]: 31.2 µM; for `O=c1c(C23CC4CC(CC(C4)C2)C3)c(O)n(-c2ccccc2)n1-c1ccccc1` [MLS000526352]: 7.5 µM; for `COc1cc(C2C(C(=O)c3cccs3)C(=O)C(=O)N2Cc2ccco2)cc(OC)c1OC` (centres undefined) [1-(2-furanylmethyl)-4-hydroxy-3-[oxo(thiophen-2-yl)methyl]-2-(3,4,5-trimethoxyphenyl)-2H-pyrrol-5-one]: 17.7 µM.
The figure for `COCCCN1C(=O)C(=O)C(C(=O)c2ccco2)C1c1cccc(Br)c1` (centres undefined) [2-(3-bromophenyl)-3-(furan-2-carbonyl)-4-hydroxy-1-(3-methoxypropyl)-2H-pyrrol-5-one] is 20.4 µM; for `CCCCc1c(O)n(-c2ccccc2)n(-c2ccccc2)c1=O` [3,5-Dioxo-1,2-diphenyl-4-n-butylpyrazolidine] it is 3.5 µM; for `COc1cccc(OC)c1C(=O)C(C#N)c1nc2ccccc2[nH]1` (centres undefined) [SMR000024183] it is above 43.7 µM.
The same measure for `COc1ccc(OC)c(C2C(C(=O)c3cccs3)C(=O)C(=O)N2c2cc(C)on2)c1` (centres undefined) [2-(2,5-dimethoxyphenyl)-1-(5-methyl-1,2-oxazol-3-yl)-4-oxidanyl-3-thiophen-2-ylcarbonyl-2H-pyrrol-5-one]: above 43.7 µM; for `Cc1cc(N2C(=O)C(=O)C(C(=O)c3ccco3)C2c2cccnc2)no1` (centres undefined) [3-(furan-2-carbonyl)-4-hydroxy-1-(5-methyl-1,2-oxazol-3-yl)-2-pyridin-3-yl-2H-pyrrol-5-one]: above 43.7 µM; for `CCOc1ccc(C(=O)C2C(=O)C(=O)N(CC3CCCO3)C2c2ccco2)cc1` (centres undefined) [(4Z)-4-[(4-ethoxyphenyl)-hydroxymethylidene]-5-(2-furanyl)-1-(2-oxolanylmethyl)pyrrolidine-2,3-dione]: 21 µM.
`COCCCN1C(=O)C(=O)C(C(=O)c2ccco2)C1c1ccccc1` (centres undefined) [3-(furan-2-carbonyl)-4-hydroxy-1-(3-methoxypropyl)-2-phenyl-2H-pyrrol-5-one] yielded a Ki of 9.5 µM.
For `Cc1ccc(C2C(C(=O)c3sc(C)nc3C)C(=O)C(=O)N2CCN2CCOCC2)o1` (centres undefined) [3-(2,4-dimethyl-1,3-thiazole-5-carbonyl)-4-hydroxy-2-(5-methylfuran-2-yl)-1-(2-morpholin-4-ylethyl)-2H-pyrrol-5-one], the Ki was above 43.7 µM.
The figure for `CCOc1ccc(C2C(C(=O)c3cccs3)C(=O)C(=O)N2CCCn2ccnc2)cc1` (centres undefined) [2-(4-ethoxyphenyl)-1-(3-imidazol-1-ylpropyl)-4-oxidanyl-3-thiophen-2-ylcarbonyl-2H-pyrrol-5-one] is 37.4 µM.
The same measure for `Cc1ccc(C)c(C(=O)C2C(=O)C(=O)N(CCCn3ccnc3)C2c2ccncc2)c1` (centres undefined) [(4E)-4-[(2,5-dimethylphenyl)-hydroxy-methylene]-1-(3-imidazol-1-ylpropyl)-5-(4-pyridyl)pyrrolidine-2,3-quinone]: above 43.7 µM.
The figure for `COCCCN1C(=O)C(=O)C(C(=O)c2ccc3c(c2)CC(C)O3)C1c1cccnc1` (centres undefined) [(4E)-1-(3-methoxypropyl)-4-[(2-methyl-2,3-dihydro-1-benzofuran-5-yl)-oxidanyl-methylidene]-5-pyridin-3-yl-pyrrolidine-2,3-dione] is above 43.7 µM; for `Cc1cc(N2C(=O)C(=O)C(C(=O)c3ccc(F)cc3)C2c2cccc(Br)c2)no1` (centres undefined) [(4E)-5-(3-bromophenyl)-4-[(4-fluorophenyl)-hydroxy-methylene]-1-(5-methylisoxazol-3-yl)pyrrolidine-2,3-quinone] it is above 43.7 µM.
